Broadly, the Kd is the free concentration of one partner at which half of the binding sites on the other are occupied at equilibrium, for simple one-to-one binding.

Data on four molecules can be found in doi:10.1101/2024.02.20.581179v1, “Regulated mRNA recruitment in dinoflagellates is reflected in hyper-variable mRNA spliced leaders and novel eIF4Es” (biorxiv, 2024).

Common to all, as to assay type: binding
The target of one assay is T1, eIF4E-1a (Amphidinium carterae, UniProt A0A0X9W7I2).
T1 construct: N-terminal GST tag (TEV site), pGEX-4T(MCS)-TEV, E. coli Rosetta(DE3)pLysS, DTT treated, GST-fusion dimer by gel filtration; tag kept
T1 sequence (A0A0X9W7I2 1-233): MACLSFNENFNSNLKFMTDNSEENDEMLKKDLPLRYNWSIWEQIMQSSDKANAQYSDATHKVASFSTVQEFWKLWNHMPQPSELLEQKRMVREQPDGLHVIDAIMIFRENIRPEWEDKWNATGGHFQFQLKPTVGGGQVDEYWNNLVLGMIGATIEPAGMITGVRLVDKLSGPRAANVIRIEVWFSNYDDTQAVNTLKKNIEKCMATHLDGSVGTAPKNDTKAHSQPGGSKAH
The assay is described as follows: SPR, Biacore T-200, steady state. (In SPR one partner is held on a chip, and binding of the other changes the refractive index at the surface.)

Another assay has as its target T2, eIF4E-2a (Amphidinium carterae, UniProt A0A109QBD6).
T2 construct: N-terminal GST tag (TEV site), E. coli, GST-fusion dimer, tag kept
T2 sequence (A0A109QBD6 1-255): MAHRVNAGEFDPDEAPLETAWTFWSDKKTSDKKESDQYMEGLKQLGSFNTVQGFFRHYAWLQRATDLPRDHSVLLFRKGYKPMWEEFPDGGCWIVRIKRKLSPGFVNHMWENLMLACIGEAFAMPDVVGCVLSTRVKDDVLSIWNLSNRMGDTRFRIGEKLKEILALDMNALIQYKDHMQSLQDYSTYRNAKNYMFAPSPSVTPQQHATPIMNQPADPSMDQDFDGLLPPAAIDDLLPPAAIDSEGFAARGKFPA
Nature of the assay: SPR, Biacore T-200, steady state. The source says: SPR, Biacore T-200, steady state on eIF4E-2a

In assay [1] the target is T3, eIF4E-1d1 (Amphidinium carterae, UniProt A0A0X9VJN7).
T3 construct: gene eIF4E-1d; N-terminal GST tag (TEV site), E. coli, GST-fusion dimer, tag kept (SPR); S-tagged in vitro translated protein in bead assay
T3 sequence (A0A0X9VJN7 1-239): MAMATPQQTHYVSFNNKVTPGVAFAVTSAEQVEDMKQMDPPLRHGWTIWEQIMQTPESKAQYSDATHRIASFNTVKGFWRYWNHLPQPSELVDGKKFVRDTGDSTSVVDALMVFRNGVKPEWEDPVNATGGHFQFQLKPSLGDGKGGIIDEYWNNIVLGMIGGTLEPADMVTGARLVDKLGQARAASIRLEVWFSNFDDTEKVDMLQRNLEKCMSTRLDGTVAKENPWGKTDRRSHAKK
Nature of the assay: SPR, Biacore T-200, steady state.

Assay [2] addresses T4, mouse eIF4E-1 (Mus musculus, UniProt P63073).
T4 construct: N-terminal GST tag, E. coli, GST-fusion dimer, tag kept
Nature of the assay: SPR, Biacore T-200, steady state.

Assay [3] has as its target T3, eIF4E-1d1. Nature of the assay: cap-Sepharose pull-down of […] in vitro translated protein. Conditions: ligand immobilised on Sepharose; S-tagged protein; 25 mM HEPES/KOH pH 7.2, 150 mM KCl, 200 μM GTP, 4 °C.
The next assay addresses T5, eIF4E-1c (Amphidinium carterae, UniProt A0A0X9VF44).
T5 construct: N-terminal S-tag, pCITE-4a, in vitro transcription/translation in rabbit reticulocyte lysate, 35S-Met labelled
T5 sequence (A0A0X9VF44 1-244): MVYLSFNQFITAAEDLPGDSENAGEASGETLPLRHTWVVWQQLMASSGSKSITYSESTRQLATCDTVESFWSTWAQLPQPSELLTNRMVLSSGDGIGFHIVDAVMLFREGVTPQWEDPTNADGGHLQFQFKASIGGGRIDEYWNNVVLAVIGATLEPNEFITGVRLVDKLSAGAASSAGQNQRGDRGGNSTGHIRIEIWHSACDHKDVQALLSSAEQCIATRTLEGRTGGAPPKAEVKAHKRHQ
The description is as above. To be noted: ligand immobilised on Sepharose; S-tagged protein; 25 mM HEPES/KOH pH 7.2, 150 mM KCl, 200 μM GTP, 4 °C.

Assay [4] deals with T3, eIF4E-1d1. Nature of the assay: SPR, Biacore T-200, kinetic fit. The source says: SPR, Biacore T-200, kinetic fit on eIF4E-1d1
Assay [5] concerns the target T4, mouse eIF4E-1. Nature of the assay: SPR, Biacore T-200, kinetic fit. From the text:
SPR, Biacore T-200, kinetic fit on mouse eIF4E-1

T4 sequence (P63073 2-217): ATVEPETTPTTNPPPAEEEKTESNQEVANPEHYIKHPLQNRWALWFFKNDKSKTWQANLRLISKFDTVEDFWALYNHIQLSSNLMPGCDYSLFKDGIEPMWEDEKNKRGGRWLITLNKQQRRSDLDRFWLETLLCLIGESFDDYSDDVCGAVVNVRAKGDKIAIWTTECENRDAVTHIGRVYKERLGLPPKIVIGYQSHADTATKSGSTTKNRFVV

With `Nc1nc2c(ncn2[C@@H]2O[C@H](COP(=O)(O)OP(=O)(O)OP(=O)(O)OC[C@H]3O[C@@H](n4cnc5c(=O)[nH]c(N)nc54)[C@H](O)[C@@H]3O)[C@@H](O)[C@H]2O)c(=O)[nH]1` [GpppG], the Kd at eIF4E-1a is 1730 ± 3700 µM; on eIF4E-2a, 665 ± 19 µM; on eIF4E-1d1 [1] it was 1010 ± 110 µM; on mouse eIF4E-1 [2], 316 ± 38 µM.

Regarding `CN(C)c1nc2c(c(=O)[nH]1)[n+](C)cn2[C@@H]1O[C@H](COP(=O)(O)OP(=O)(O)OP(=O)(O)O)[C@@H](O)[C@H]1O` [TMG], the “cap-Sepharose pull-down of 35S in vitro translated protein” value is “eIF4E-1c and eIF4E-1d1 showed some affinity for the TMG cap analogue” on eIF4E-1d1 [3]; “eIF4E-1c and eIF4E-1d1 showed some affinity for the TMG cap analogue” at eIF4E-1c.

Take `C[n+]1cn([C@@H]2O[C@H](COP(=O)(O)OP(=O)(O)OP(=O)(O)OC[C@H]3O[C@@H](n4ccc(N)nc4=O)[C@H](O)[C@@H]3O)[C@@H](O)[C@H]2O)c2nc(N)[nH]c(=O)c21` [m^7GpppC]: the Kd on eIF4E-1d1 [4] was determined as 82.4 µM; at mouse eIF4E-1 [5] it was 69.8 µM; at eIF4E-1a it was 10.8 ± 3.1 µM.

As for `C[n+]1cn([C@@H]2O[C@H](COP(=O)(O)OP(=O)(O)OP(=O)(O)OC[C@H]3O[C@@H](n4cnc5c(=O)[nH]c(N)nc54)[C@H](O)[C@@H]3O)[C@@H](O)[C@H]2O)c2nc(N)[nH]c(=O)c21` [m^7GpppG], the Kd stood at 17.5 ± 4.68 µM on eIF4E-1a, 469 ± 220 µM at eIF4E-2a, 34.5 ± 18.6 µM at eIF4E-1d1 [1] and 59.7 ± 49.3 µM at mouse eIF4E-1 [2].
